Reference: article PMC9965125, “New NSAID Conjugates as Potent and Selective COX-2 Inhibitors: Synthesis, Molecular Modeling and Biological Investigation” (Molecules, 2023)
“And” between values parts separate entries of the source, which are not always exact repeats. Equal entries are not always repeated.

Assays:
gastric mucosa = conditions: both, albino, mouse, in vivo, 3 days; for % Incidence of Ulcer Divided by 10 / Average Severity of Ulcer / Average of Ulcer Number / Number of Animals with Ulcer: po, 10 mg/kg
Method: The ulcerogenic liability was determined in albino mice obeying the standard method.
Animals of either sex (pregnant females were excluded) weighing 20 –25 g were divided into 8 groups of 6 animals each. The animals fasted 18 h before drug administration.
80 administered orally for three successive days to fasted animals at a dose of 10 mg kg-1 (animal […]
The control group animals were given water only with few drops of Tween 80. The animals were sacrificed by cervical dislocation and the stomach was removed, opened along the greater curvature and rinsed with saline. The gastric mucosa was examined with a magnifying lens (10x) for the presence of lesions and ero sions. The ulcer index was calculated (Table 4) and the degree of ulcerogenic effect was expressed in terms of.
1. The percentage incidence of ulcers divided by 10.
2. Average number of ulcers per stomach.
3. Average severity of ulcers.
The ulcer index is the value that resulted from the sum of the above three values. […]

iNOS mRNA = conditions: 40 μg/mL; in comparison to LPS-stimulated cells only
Method: (§1) For this purpose, the mRNA levels of IL-6, TNF-α, and iNOS were measured using real-time qPCR (RT-qPCR).
(§2) Treatment of LPS-stimulated RAW264.7 macrophages was done with 40 µg/mL of the isolated
(§3) Evaluation of inflammatory mRNA expression levels
(§4) Inflammatory mRNA expression levels were evaluated using RT-qPCR (Applied Biosystems, CA, USA). Total RNA was extracted by lysing RAW264.7 cells using Qiazol Lysis Reagent. The extracted RNA was used to synthesize cDNA using RevertAid First Strand cDNA synthesis kit according to manufacturer’s protocol. The cDNA was then added with forward and reverse
(§5) primers, nuclease free water and maxima SYBR green mix (Thermo Fisher Scientific, MA, USA).
(§6) The inflammation-related genes of mRNA expression levels are as follows: IL-6, TNF-α, and
(§7) iNOS. All expression was normalized to GAPDH (endogenous control) and relative fold mRNA
(§8) expression levels were calculated using the comparative 2 −ΔΔCT method. The PCR reaction consists
(§9) of initiation stage at 95 °C for 10 min, after that 40 PCR cycles of d enaturation stage for 15 s at 95
(§10) °C and annealing and extension for 1 min at 60 °C.

mice = assay: toxicological bioassay; assay type: in vivo; conditions: five times the anti-inflammatory dose (50 mg/kg indomethacin mol equivalent); recorded 24 h post-administration
Method: Five times the anti-inflammatory dose was orally administrated. […]
5a, 5b, 5d, 5e) was determined utilizing the standard method in mice. Albino mice weighing 20–25 g were divided into 6 groups of 6 mice each. Administrations of the tested compounds dissolved in distilled water by the aid of few drops of Tween 80 were given intraperitoneally in 50 […]
inflammatory dosage). The control group was given water only with few drops of Tween 80. The toxic symptoms and mortality rates were recorded 24 h post -administration in each group.

[1] = test system: carrageenan induced paw edema; assay: carrageenan-induced rat paw edema; assay type: in vivo; conditions: 10 mg/kg indomethacin mol equivalent i.p.; for Mean Edema Thickness: ± standard error
Method: Anti-inflammatory activity screening
The anti-inflammatory activity of the tested compounds was determined in-vivo by the acute carrageenan induced paw edema standard method in rats. Adult Wister rats of either sex (pregnant female animals were excluded) weighing 120–150 g were divided into 19 groups of 6 animals each. The tested compounds dissolved in DMSO, at a dose of 10 mg kg-1 (rat body […]
inflammation. The control group was given DMSO only. Paw edema was induced by subcutaneous injection of freshly prepared 1% solution of carrageenan in saline (0.9%, 0.1 ml per rat) into subplantar tissue of the right hind paw of rats. The thickness of the paw was measured (in mm) after successive time intervals (1, 2, 3, 4 and 24 h) and compared with the initial hind paw thickness of each rat for determining the edema thickness. Data were collected, checked, revised and analyzed (SPSS 16). Quantitative variables from normal distribution were expressed as means ± SE “standard error”. The anti-inflammatory activity was expressed as percentage inhibition of edema thickness in treated animals in comparison with the control group according to eqn. (1) […]
% Inhibition of edema= Vc-Vt x 100 … .. (1)
Where, Vc and Vt are the means of edema paw thickness for the control and tested compound treated animal groups, respectively.
The potency of the tested compounds was expressed as % inhibition of edema thickness […]
% Potency = % inhibition of edema for the tested compound treated group x 100 … . (2)

[2] = test system: acetic acid-induced abdominal writhing; assay: acetic acid-induced abdominal writhing assay (peripheral analgesic); assay type: in vivo, mice; conditions: 10 mg/kg indomethacin mol equivalent i.p.; for Writing Reflex ± SE: number of writhing counted for 30 min
Method: Peripheral analgesic testing
Peripheral analgesic activity was measured by the standard acetic acid-induced writhing […]
One hour after intraperitoneally (i,p.) administration of 10 mg kg−1 (mice body weight) […]
distilled/sterile water by the aid of two drops of Tween 80, each mouse was injected with 0.1 ml of 1% acetic acid solution i.p. The control group animals were given sterile/distilled water only with few drops of Tween 80. Starting 5 min after the acetic acid injection, the number of muscular contractions in each mouse was counted for 30 min. A significant reduction in the number of writhing by any test compound as compared to control animals was considered as a positive analgesic response. Percentage protection was calculated according to equ. (3), where n stands for the average number of writhing in the control group and n' is the average number of writhing in the treated group. The % potency was calculated by equ. (4) (Table 2).
% Inhibition/protection = n−n′ x100 … . (3)

[3] = test system: LPS-stimulated RAW264.7 macrophages; assay: NO production of LPS-induced RAW264.7 (Griess method); assay type: cell-based; conditions: 40 μg/mL; LPS 10 ng/mL; LPS only 22 μM, baseline 12.8 μM
IL-6 mRNA = conditions: 40 μg/mL; in comparison to LPS-stimulated cells only
Method: as §1, §2, §3, §4, §5, §6, §7, §8, §9, §10

TNF-α mRNA = conditions: 40 μg/mL; in comparison to LPS-stimulated cells only
Method: as §1, §2, §3, §4, §5, §6, §7, §8, §9, §10

hot plate latency = assay: hot plate assay (central analgesic); assay type: in vivo, mice; conditions: 10 mg/kg indomethacin mol equivalent i.p.; for Latency Period ± SE: cutoff 15 sec
Method: The % potency was calculated by equ. (4) (Table 2). […]
% Potency = % protection of the tested compound x 100 ……. (4) […]
Central analgesic (hot plate) testing
The standard hot plate technique was undertaken by in vivo standard hot plate test [ 1,2]. […]
by placing them on a hot plate maintained at 55 ± 1 °C, 30 min. […]
suspended in sterile/distilled water by the ai d of two drops of Tween 80, and recording the reaction time in seconds for forepaw licking or jumping. The control group animals were given sterile/distilled water only with few drops of Tween 80. The maximum cutoff time was chosen as 15 sec. to prevent tissue damage. Response latencies were measured 30, 60, 90 and 120 min. after the application. The % protection was calculated by equ. ( 5) where, T1, T0 are the latency time mean of the tested compound and control group, respectively (Table 3).

## CC(C)Cc1ccc(C(C)C(=O)OCc2cn(-c3ccccc3Cl)nn2)cc1 (stereo not shown) [Compound 5a, (1-(2-Chlorophenyl)-1H-1,2,3-triazol-4-yl)methyl 2-(4-isobutylphenyl)propanoate]
Gastric mucosa
  Ulcer Index: 0
  % Incidence of Ulcer Divided by 10: 0
  Average Severity of Ulcer: 0
  Average of Ulcer Number: 0
  Number of Animals with Ulcer: 0
iNOS mRNA
  reduction in iNOS mRNA levels: 34%
mice
  toxic symptoms or mortality: No toxic symptoms or mortality
[1]; 1 h
  % Inhibition of Edema ± Standard Error: 29.7 ± 1.1%
[1]; 2 h
  % Inhibition of Edema ± Standard Error: 31.3 ± 0.8%
[1]; 3 h, 10 mg/kg
  % Inhibition of Edema ± Standard Error: 95.4% and 95.4 ± 0.7%
[1]; 3 h
  Mean Edema Thickness: 0.033 ± 0.01 mm
[1]; 4 h
  % Inhibition of Edema ± Standard Error: 45.7 ± 1.4%
[1]; 24 h, 10 mg/kg
  % Inhibition of Edema ± Standard Error: 22.5% and 22.5 ± 0.9%
[1]; 24 h
  Mean Edema Thickness: 0.713 ± 0.02 mm
[2]
  % Inhibition/Protection: 83.3%
  Writing Reflex ± SE: 6.7 ± 0.7
[3]
  LPS-stimulated NO production (nitrite): 17.7 µM
IL-6 mRNA
  reduction in IL-6 mRNA levels: 61.3%
TNF-α mRNA
  reduction in TNF-α mRNA levels: 88%
Hot plate latency; after 30 min
  % Protection: 79.2%
  Latency Period ± SE: 11.97 ± 2.5 s
Hot plate latency; after 60 min
  % Protection: 71.5%
  Latency Period ± SE: 12.47 ± 2.0 s
Hot plate latency; after 90 min
  % Protection: 34.5%
  Latency Period ± SE: 11.98 ± 2.6 s
Hot plate latency; after 120 min
  % Protection: 54.5%
  Latency Period ± SE: 13.92 ± 2.3 s

## CC(C)Cc1ccc(C(C)C(=O)OCc2cn(-c3ccc(Cl)cc3)nn2)cc1 (stereo not shown) [Compound 5b, (1-(4-Chlorophenyl)-1H-1,2,3-triazol-4-yl)methyl 2-(4-isobutylphenyl)propanoate]
Gastric mucosa
  Ulcer Index: 0
  % Incidence of Ulcer Divided by 10: 0
  Average Severity of Ulcer: 0
  Average of Ulcer Number: 0
  Number of Animals with Ulcer: 0
mice
  toxic symptoms or mortality: No toxic symptoms or mortality
[1]; 1 h
  % Inhibition of Edema ± Standard Error: 58.3 ± 0.7%
[1]; 2 h
  % Inhibition of Edema ± Standard Error: 69.6 ± 2.1%
[1]; 3 h, 10 mg/kg
  % Inhibition of Edema ± Standard Error: 94.5% and 94.5 ± 0.4%
[1]; 3 h
  Mean Edema Thickness: 0.040 ± 0.01 mm
[1]; 4 h
  % Inhibition of Edema ± Standard Error: 66.8 ± 1.6%
[1]; 24 h
  % Inhibition of Edema ± Standard Error: 8.4 ± 1.2%
[2]
  % Inhibition/Protection: 87.5%
  Writing Reflex ± SE: 5.0 ± 0.9
[3]
  LPS-stimulated NO production (nitrite): 4.88 ± 1 µM
IL-6 mRNA
  reduction in IL-6 mRNA levels: 42%
TNF-α mRNA
  reduction in TNF-α mRNA levels: 82%
Hot plate latency; after 30 min
  % Protection: 84.1%
  Latency Period ± SE: 12.30 ± 1.6 s
Hot plate latency; after 60 min
  % Protection: 41.3%
  Latency Period ± SE: 10.27 ± 1.9 s
Hot plate latency; after 90 min
  % Protection: 25.0%
  Latency Period ± SE: 11.14 ± 1.5 s
Hot plate latency; after 120 min
  % Protection: 27.1%
  Latency Period ± SE: 11.45 ± 2.0 s
